Reference: patent US20210269434A1, “TRICYCLIC COMPOUNDS AS INHIBITORS OF KRAS” (Incyte Corporation, priority 2020, published 2021)

Legend:
[1] = molecular target: KRAS G12C (Homo sapiens, UniProt P01116, G12C); assay: GDP-GTP exchange assay (KRAS_G12C exchange); type: biochemical; conditions: bodipy-GDP loaded KRAS G12C 2.5 nM, SOS1 150 nM, GppNHp; 2 hours pre-incubation, 2 hours reaction; read-out: G12C_exchange
Procedure, shortened: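 Fluorescence exchange of bodipy-GDP for GppNHp, SOS1-driven, read at 485/520 nm; IC50 from four-parameter variable-slope fit. Both mutants used 2.5 nM final labelled protein and a 2 h compound pre-incubation. G12C reaction had 500 uM GppNHp and 150 nM SOS1 for 2 h; G12D ran 4 h.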

[2] = test system: MIA PaCa-2 (KRAS G12C) cells; assay: Cellular pERK HTRF assay (KRAS_G12C pERK); type: cell-based, human; conditions: Homo sapiens, MIA PaCa-2, 4 hours incubation, read-out: G12C_pERK
Procedure, shortened: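 MIA PaCa-2 cells plated overnight, then exposed to compound for 4 h at 37 °C (G12C compounds). Phospho-ERK1/2 measured in lysates by HTRF (665/620 nm) after overnight antibody incubation; IC50 from percent inhibition versus log concentration.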

KRAS G12C, sequence (P01116 1-188 isoform P01116-2 G12C): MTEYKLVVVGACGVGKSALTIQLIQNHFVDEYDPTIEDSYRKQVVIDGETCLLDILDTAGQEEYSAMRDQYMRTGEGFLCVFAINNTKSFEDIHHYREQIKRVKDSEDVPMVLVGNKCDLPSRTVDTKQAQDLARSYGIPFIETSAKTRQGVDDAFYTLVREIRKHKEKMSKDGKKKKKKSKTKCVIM

SMILES | IC50 [1] | IC50 [2]
CC#CC(=O)N1CC[C@H](n2nnc3c(N4CC(C)(N(C)C)C4)nc4c(F)c(-c5ccc(F)c6cccnc56)c(C(F)(F)F)cc4c32)C[C@H]1CC#N [Example 234, 2-((2S,4S)-1-(but-2-ynoyl)-4-(4-(3-(dimethylamino)-3-methylazetidin-1-yl)-6-fluoro-7-(5-fluoroquinolin-8-yl)-8-(trifluoromethyl)-1H-[1,2,3]triazolo[4,5-c]quinolin-1-yl)piperidin-2-yl)acetonitrile] | ≤ 0.1 µM | ≤ 0.1 µM
CC#CC(=O)N1CC[C@H](n2nnc3c(N4CC(C)(N(C)C)C4)nc4c(F)c(-c5cccc(C)c5Cl)c(C(F)(F)F)cc4c32)C[C@H]1CC#N [Example 236, 2-((2S,4S)-1-(but-2-ynoyl)-4-(7-(2-chloro-3-methylphenyl)-4-(3-(dimethylamino)-3-methylazetidin-1-yl)-6-fluoro-8-(trifluoromethyl)-1H-[1,2,3]triazolo[4,5-c]quinolin-1-yl)piperidin-2-yl)acetonitrile] | ≤ 0.1 µM | ≤ 0.1 µM
Cc1cccc(-c2c(C(F)(F)F)cc3c(nc(N4CC(C)(N(C)C)C4)c4nnn([C@H]5CCN(C(=O)/C=C/CN(C)C)[C@H](CC#N)C5)c43)c2F)c1Cl [Example 237, 2-((2S,4S)-4-(7-(2-chloro-3-methylphenyl)-4-(3-(dimethylamino)-3-methylazetidin-1-yl)-6-fluoro-8-(trifluoromethyl)-1H-[1,2,3]triazolo[4,5-c]quinolin-1-yl)-1-((E)-4-(dimethylamino)but-2-enoyl)piperidin-2-yl)acetonitrile] | ≤ 0.1 µM | ≤ 0.1 µM
CC#CC(=O)N1CC[C@H](n2nnc3c(N4CC(C)(N(C)C)C4)nc4c(F)c(-c5cccc(Cl)c5C)c(C(F)(F)F)cc4c32)C[C@H]1CC#N [Example 239a, 2-((2S,4S)-1-(but-2-ynoyl)-4-(7-(3-chloro-2-methyl-phenyl)-4-(3-(dimethyl-amino)-3-methylazetidin-1-yl)-6-fluoro-8-(trifluoro-methyl)-1H-[1,2,3]triazolo-[4,5-c]quinolin-1-yl)piperidin-2-yl)acetonitrile] | ≤ 0.1 µM | ≤ 0.1 µM
Cc1c(Cl)cccc1-c1c(C(F)(F)F)cc2c(nc(N3CC(C)(N(C)C)C3)c3nnn([C@H]4CCN(C(=O)/C=C/CN(C)C)[C@H](CC#N)C4)c32)c1F [Example 240, 2-((2S,4S)-4-(7-(3-chloro-2-methylphenyl)-4-(3-(dimethylamino)-3-methylazetidin-1-yl)-6-fluoro-8-(trifluoromethyl)-1H-[1,2,3]triazolo[4,5-c]quinolin-1-yl)-1-((E)-4-(dimethylamino)but-2-enoyl)piperidin-2-yl)acetonitrile] | ≤ 0.1 µM | ≤ 0.1 µM
CC#CC(=O)N1CC[C@H](n2nnc3c(OC[C@@H]4CCCN4C)nc4c(F)c(-c5cccc(Cl)c5C)c(CCC#N)cc4c32)C[C@H]1CC#N [Example 241a, 3-(1-((2S,4S)-1-(but-2-ynoyl)-2-(cyanomethyl)-piperidin-4-yl)-7-(3-chloro-2-methylphenyl)-6-fluoro-4-(((S)-1-methylpyrrolidin-2-yl)methoxy)-1H-[1,2,3]triazolo[4,5-c]quinolin-8-yl)propanenitrile] | ≤ 0.1 µM | ≤ 0.1 µM
COc1c(Cl)cccc1-c1c(C(F)(F)F)cc2c(nc(N3CC(C)(N(C)C)C3)c3nnn([C@H]4CCN(C(=O)/C=C/CN(C)C)[C@H](CC#N)C4)c32)c1F [Example 244, 2-((2S,4S)-4-(7-(3-chloro-2-methoxyphenyl)-4-(3-(dimethylamino)-3-methylazetidin-1-yl)-6-fluoro-8-(trifluoromethyl)-1H-[1,2,3]triazolo[4,5-c]quinolin-1-yl)-1-((E)-4-(dimethylamino)but-2-enoyl)piperidin-2-yl)acetonitrile] | ≤ 0.1 µM | ≤ 0.1 µM
